Earlier results, collected in patent US20070275060A1, “Extended release solid pharmaceutical composition containing carbidopa and levodopa” (OSMOTICA COSTA RICA SOCIEDAD ANONIMA, priority 2005, published 2007).

Conditions: orally administered

SMILES: N[C@@H](Cc1ccc(O)c(O)c1)C(=O)O [LD]
- time of peak concentrations: 30 to 120 min
